{"source": "patent US5677296A", "about": "“Carbamic acid derivatives of substituted dibenzoxazepine compounds, pharmaceutical compositions and methods of use” (G.D. Searle & Co., priority 1995, dated 1997)", "key": {"[1]": {"system": "prostaglandin E2-induced contractions of guinea pig ileum", "assay": "Prostaglandin (PGE) Antagonism Assay (inhibition of prostaglandin E2-induced contractions of segments of guinea pig ileum)", "details": "for PGE2 antagonism in guinea pig ileum: Dose Ratio at 3 × 10^-6 M: test compound 3 × 10^-6 M, 30 min incubation, dose ratio of PGE2 EC50 values, average where more than one determined", "method": "(b) Prostaglandin (PGE) Antagonism Assay\nIn order to determine the effectiveness of several of the compounds of the present invention (\"test compounds\") as prostaglandin E2 antagonists,a prostaglandin antagonism assay was conducted, as described below, to determine the ability of these compounds to inhibit prostaglandin E2 -induced contractions of segments of guinea pig ileum.\nMale albino guinea pigs weighing 200 to 500 grams were sacrificed by cervical dislocation. The ilea were then quickly removed from the guinea pigs and placed in a modified Tyrode solution, a solution which is known to those skilled in the art, containing one-half of the usual amount of magnesium ions.\nSegments of ileum about 2 cm long were then cut and mounted in a 10 mL tissue bath containing the modified Tyrode solution. The solution was maintained at 37° C. and aerated with a gaseous mixture of 95% oxygen and 5% carbon dioxide. Data for a control prostaglandin E2 dose response curve plotting concentration of prostaglandin E2 versus the intensity of contractions, detected isotonically, was then obtained by experimentally adjusting the dose of the prostaglandin E2 being injected into the tissue bath, in a manner known by those of skill in the art.\nSolutions or suspensions containing an initial concentration (3 micromolar) of a test compound in modified Tyrode solution (\"test solutions/suspensions\") were then separately substituted for the control bath solution. Each test solution/suspension was then kept in constant contact with the ileum tissue, except for brief periods to drain the bath in preparation for rinsing with fresh test solution/suspension. A second prostaglandin E2 dose response curve was then generated for prostaglandin E2 in the presence of a test compound.\nA control dose response curve is produced in isolated segments of guinea pig ileum mounted in an automated apparatus with six concentrations of prostaglandin E2. A solution or suspension of test compound is substituted for the control bathing solution and is incubated for thirty minutes. An additional prostaglandin E2 dose response curve is then performed in the presence of the test compound. A dose ratio is calculated from the EC50 values obtained from duplicate replications on each concentration of the test compound.\nA dose ratio of EC50 doses was calculated from the results of each test in a manner known by those of skill in the art, and described above.\nThe dose ratios reported in Table 1 represent an average of multiple dose ratios for those compounds for which more than one dose ratio was determined. The compounds of the present invention which were tested in this assay, and for which results are presented in Table 1, correspond to the particular examples specified in Table 1.\nThe pA2 value (a statistical constant which is a common measure of expressing the potency of a particular drug as a competitive antagonist), rather than the dose ratio, was calculated for the test compound shown and described in Example 6 by schild plot calculations, as described by H. O. Schild, \"pA, A New Scale for the Measurement of Drug Antagonism,\" Br. J. Pharmacol, 2, 189 (1947), and is reported in Table 1."}, "[2]": {"system": "phenylbenzoquinone (PBQ)-induced writhing in mice", "assay": "Writhing Assay (PBQ-induced writhing in mice, analgesic activity)", "assay_type": "in vivo, mouse (Charles River male albino mice)", "details": "30 mpk, i.g., 30 min before PBQ i.p., fraction of mice", "source_text": "The Writhing Assay is one of the most widely-used experimental procedures for measuring the analgesic activity of different narcotic and nonnarcotic analgesic agents, and involves the continuous, chemically-induced pain of visceral origin to an animal, such as a mouse or rat. [Gyires et al., Arch. int. Pharmacodyn, 267, 131-140 (1984); C. Vander Wende et al., Fed. Proc., 15, 494 (1956); Koster et al., Fed. Proc., 18, 412 (1959); and Witken et al., J. Pharmacol. exp. Ther., 133, 400-408 (1961).] Chemicals which may be used to induce this pain include phenylbenzoquinone (PBQ) and acetic acid. As a result of the chemical irritation to the animal, a characteristic stretching and writhing of the animal (dorsiflexion of the animal's back, extension of its hindlimbs and the strong contraction of its abdominal musculature) will generally occur. […] Drugs which reduce the number of writhes of the animal appear to restore the normal nociceptive threshold of the animal.\nCharles River male albino mice, weighing 20 to 30 grams, were used in this assay.\nThirty minutes after intragastric administration to ten mice of 30 mg per kilogram of body weight of a compound of the present invention (\"test compound\"), […] per 10 g of body weight of a 0.025% w/v solution of PBQ was injected intraperitoneally into each mouse. Ten mice which were given saline in place of a test compound of the invention were used as a control group.\nFive minutes later, each mouse was individually placed into a glass beaker for observation, and the number of writhes occurring during the following ten-minute period was counted.\nA test compound was considered to have produced analgesia in a mouse if, in accordance with the conditions set forth above, and under the test criteria employed for this assay, after the administration of 30 mg per kilogram of body weight of a compound of the present invention to the mouse, the number of writhes elicited by a mouse injected with PBQ was equal to, or less than, one-half the median number of writhes recorded for the saline-treated control group of mice that day, as described by Taber in \"Predictive Value of Analgesic Assays in Mice and Rats,\" Advances in Biochemical Psychopharmacology, 8, 191 (1974).\nThe results for the particular compounds of the present invention analyzed in this assay, and discussed in the examples identified below which correspond thereto, are presented in Table 1 hereinbelow as fractions under the heading \"WRITHING ASSAY.\" The fractions indicate the number of mice out of eight or ten in which a test compound produced analgesia.\nThe standard initial screening dose of a test compound employed in this assay was 30 mpk […]. Generally, if this initial screening dose of the test compound produced analgesia in seven out of ten mice, then the effect of additional doses of the test compound on the writhing response was evaluated, and then the ED50 dose was generally calculated. (The slopes of the dose-response curves for all test compounds analyzed were compared as described by Tallarida and Murray, Manual of Pharmacologic Calculations, Page 11 (Springer Verlag, New York, 1981)).\nAll ED50 doses calculated are also presented in Table 1 hereinbelow under the heading \"WRITHING ASSAY,\" but as whole numbers."}}}
{"smiles": "O=C1OC(c2cccnc2)C2c3ccccc3Oc3ccc(Cl)cc3N12", "note": "(mixture of isomers) [Compounds 9a and 9b (Mixture), 6-chloro-1,13b-dihydro-1-(3-pyridyl)-3H-dibenz[b,f]-oxazolo[3,4-d][1,4]oxazepin-3-one]", "values": [{"measurement": "PGE2 antagonism in guinea pig ileum: Dose Ratio at 3 × 10^-6 M", "setting": "[1]", "result": 1.5}]}
{"smiles": "O=C1O[C@@H](c2ccncc2)[C@@H]2c3ccccc3Oc3ccc(Cl)cc3N12", "note": "(relative stereo) [Compound 6, trans-6-chloro-1,13b-dihydro-1-(4-pyridyl)-3H-dibenz-[b,f]oxazolo[3,4-d][1,4]oxazepin-3-one]", "values": [{"measurement": "Writhing assay: number of mice out of eight or ten in which test compound produced analgesia", "setting": "[2]", "result": "5/10"}, {"measurement": "PGE2 antagonism in guinea pig ileum: PA2 Value", "setting": "[1]; Schild plot", "result": 7.15}]}
{"smiles": "O=C1O[C@@H](c2ccncc2)[C@H]2c3ccccc3Oc3ccc(Cl)cc3N12", "note": "(relative stereo) [Compound 7, cis-6-chloro-1,13b-dihydro-1-(4-pyridyl)-3H-dibenz[b,f]oxazolo-[3,4-d][1,4]oxazepin-3-one]", "values": [{"measurement": "Writhing assay: number of mice out of eight or ten in which test compound produced analgesia", "setting": "[2]", "result": "9/10"}, {"measurement": "PGE2 antagonism in guinea pig ileum: Dose Ratio at 3 × 10^-6 M", "setting": "[1]", "result": 1.5}]}
{"smiles": "O=C1O[C@@H](c2ccccn2)[C@@H]2c3ccccc3Oc3ccc(Cl)cc3N12", "note": "(relative stereo) [Compound 11, cis-6-chloro-1,13b-dihydro-1-(2-pyridyl)-3H-dibenz[b,f]oxazolo[3,4-d][1,4]-oxazepin-3-one]", "values": [{"measurement": "Writhing assay: number of mice out of eight or ten in which test compound produced analgesia", "setting": "[2]", "result": "2/8"}, {"measurement": "PGE2 antagonism in guinea pig ileum: Dose Ratio at 3 × 10^-6 M", "setting": "[1]", "result": 8.6}]}
{"smiles": "COC(=O)c1ccc([C@@H]2OC(=O)N3c4cc(Cl)ccc4Oc4ccccc4[C@@H]23)cc1", "note": "(relative stereo) [Compound 17, 6-chloro-1,13b-dihydro-1-(4-carboxymethylphenyl)-3H-dibenz[b,f]-oxazolo[3,4-d][1,4]-oxazepin-3-one]", "values": [{"measurement": "PGE2 antagonism in guinea pig ileum: Dose Ratio at 3 × 10^-6 M", "setting": "[1]", "result": 2.3}]}
{"smiles": "O=C1OC(c2ccccc2)C2c3ccccc3Oc3ccc(Cl)cc3N12", "note": "(single isomer, unassigned) [Compound 3, 6-chloro-1,13b-dihydro-1-phenyl-3H-dibenz[b,f]oxazolo-[3,4-d][1,4]oxazepin-3-one]", "values": [{"measurement": "Writhing assay: number of mice out of eight or ten in which test compound produced analgesia", "setting": "[2]", "result": "3/10"}, {"measurement": "PGE2 antagonism in guinea pig ileum: Dose Ratio at 3 × 10^-6 M", "setting": "[1]", "result": 43.6}]}
{"smiles": "O=C1OC(c2ccccc2)C2c3ccccc3Oc3ccc(Cl)cc3N12", "note": "(single isomer, unassigned) [Compound 4, 6-chloro-1,13b-dihydro-1-phenyl-3H-dibenz[b,f]oxazolo-[3,4-d][1,4]oxazepin-3-one]", "values": [{"measurement": "Writhing assay: number of mice out of eight or ten in which test compound produced analgesia", "setting": "[2]", "result": "3/10"}, {"measurement": "PGE2 antagonism in guinea pig ileum: Dose Ratio at 3 × 10^-6 M", "setting": "[1]", "result": 0.87}]}
{"smiles": "O=C1N2C=Cc3ccccc3C2C2c3ccccc3Oc3ccc(Cl)cc3N12", "note": "(single isomer, unassigned) [Compound 28, 12-Chloro-15H-benz[b]isoquino[2',1':3,4]imidazo-1,5-d][benzoxazepin-15-one]", "values": [{"measurement": "PGE2 antagonism in guinea pig ileum: Dose Ratio at 3 × 10^-6 M", "setting": "[1]", "result": 3.5}]}
{"smiles": "O=C1OC(c2ccncc2)c2c(Cl)ccc3c2N1Cc1ccccc1O3", "note": "(single isomer, unassigned; (+)) [Compound 5a, (+)-4-chloro-3-(4-pyridyl)-1H,3H,12H-[3,1]benzoxazino-[8,1-b,c][1,4]benzoxazepin-1-one]", "values": [{"measurement": "Writhing assay: number of mice out of eight or ten in which test compound produced analgesia", "setting": "[2]; 30 mg/kg", "result": "8/10"}, {"measurement": "PGE2 antagonism in guinea pig ileum: Dose Ratio at 3 × 10^-6 M", "setting": "[1]", "result": 5.2}]}
{"smiles": "O=C1OC(c2cccnc2)c2c(Cl)ccc3c2N1Cc1ccccc1O3", "note": "(centres unmarked) [Compound 8, 4-chloro-3-(3-pyridyl)-1H,3H,12H-[3,1]-benzoxazino-[8,1-b,c][1,4]benzoxazepin-1-one]", "values": [{"measurement": "Writhing assay: number of mice out of eight or ten in which test compound produced analgesia", "setting": "[2]", "result": "5/10"}]}
{"smiles": "O=C1OC(c2ccsc2)C2c3ccccc3Oc3ccc(Cl)cc3N12", "note": "(centres unmarked) [Compound 12, 6-chloro-1,13b-dihydro-1-(3-thienyl)-3H-dibenz[b,f]oxazolo[3,4-d][1,4]-oxazepin-3-one]", "values": [{"measurement": "PGE2 antagonism in guinea pig ileum: Dose Ratio at 3 × 10^-6 M", "setting": "[1]", "result": 1.9}]}
{"smiles": "O=C1OC(c2ccco2)c2c(Cl)ccc3c2N1Cc1ccccc1O3", "note": "(centres unmarked) [Compound 13, 4-chloro-3-(-2-furyl)-1H,3H,12H-[3,1]-benzoxazino-[8,1-b,c][1,4]benzoxazepin-1-one]", "values": [{"measurement": "PGE2 antagonism in guinea pig ileum: Dose Ratio at 3 × 10^-6 M", "setting": "[1]", "result": 4.4}]}
{"smiles": "O=C(O)Cc1ccc(C2OC(=O)N3c4cc(Cl)ccc4Oc4ccccc4C23)cc1", "note": "(centres unmarked) [Compound 16, 6-chloro-1,13b-dihydro-1-(-4-carboxymethlyphenyl)-3H-dibenz[b,f]-oxazolo-[3,4-d][1,4]oxazepin-3-one]", "values": [{"measurement": "PGE2 antagonism in guinea pig ileum: Dose Ratio at 3 × 10^-6 M", "setting": "[1]", "result": 2.4}]}
{"smiles": "O=C1OC2(CCC2)C2c3ccccc3Oc3ccc(Cl)cc3N12", "note": "(centres unmarked) [Compound 21, 6-Chloro-1,13b-dihydro-3H-spiro[dibenz[b,f]oxazolo-[3,4-d][1,4]oxazepin-1,1'-cyclobutan]-3-one]", "values": [{"measurement": "PGE2 antagonism in guinea pig ileum: Dose Ratio at 3 × 10^-6 M", "setting": "[1]", "result": 0.9}]}
{"smiles": "O=C1OC2(CCCC2)C2c3ccccc3Oc3ccc(Cl)cc3N12", "note": "(centres unmarked) [Compound 22, 6-chloro-1,13H-spiro[dibenz[b,f]-oxazolo3,4-d][1,4]oxazepin-1,1'-cyclopentane-3-one]", "values": [{"measurement": "PGE2 antagonism in guinea pig ileum: Dose Ratio at 3 × 10^-6 M", "setting": "[1]", "result": 2.5}]}
{"smiles": "O=C1N2CCc3ccccc3C2C2c3ccccc3Oc3ccc(Cl)cc3N12", "note": "(centres unmarked) [Compound 29, 12-Chloro-17,18-dihydro-15H-benz[b]isoquino[2',1';3,4]-imidazo[1,5-d][1,4]benzoxazepin-15-one]", "values": [{"measurement": "PGE2 antagonism in guinea pig ileum: Dose Ratio at 3 × 10^-6 M", "setting": "[1]", "result": 3.8}]}
{"smiles": "O=c1[nH]c(-c2ccccc2)c2n1-c1cc(Cl)ccc1Oc1ccccc1-2", "note": "[Compound 30, 6-Chloro-1-phenyl-2H-dibenz[b,f]imidazo[1,5-d]-[1,4]oxazepin-3-one]", "values": [{"measurement": "PGE2 antagonism in guinea pig ileum: Dose Ratio at 3 × 10^-6 M", "setting": "[1]", "result": 2.1}]}
{"smiles": "Cn1c(-c2ccccc2)c2n(c1=O)-c1cc(Cl)ccc1Oc1ccccc1-2", "note": "[Compound 31]", "values": [{"measurement": "PGE2 antagonism in guinea pig ileum: Dose Ratio at 3 × 10^-6 M", "setting": "[1]", "result": 1.4}]}
{"smiles": "O=C1C2c3ccccc3Oc3ccc(Cl)cc3N2C(=O)N1c1ccccc1", "note": "(centres unmarked) [Compound 33, 6-Chloro-2-phenyl-2,13bH-dibenz[b,f]imidazo-[1,5-d][1,4]oxazepin-1,3-dione]", "values": [{"measurement": "PGE2 antagonism in guinea pig ileum: Dose Ratio at 3 × 10^-6 M", "setting": "[1]", "result": 4.3}]}
{"smiles": "O=C1C2c3ccccc3Oc3ccc(Cl)cc3N2C(=O)N1Cc1ccccc1", "note": "(centres unmarked) [Compound 34, 6-Chloro-2-phenylmethyl-2H,13bH-dibenz[b,f]-imidazo-[1,5-d][1,4]oxazepin-1,3-dione]", "values": [{"measurement": "PGE2 antagonism in guinea pig ileum: Dose Ratio at 3 × 10^-6 M", "setting": "[1]", "result": 3.6}]}
